In patent US9023789B2, “Amylin analogs and pharmaceutical compositions thereof” (Novo Nordisk A/S, priority 2012, dated 2015):
Numbered stars: 1 amine (or outer) side, 2 acyl side, 3 side chain; on linkers, the order of the positions; unused ones are H or OH. Bridge positions count the residues as written; N and C are the ends. Side chains are listed from the residue outwards. Peptide text beside a SMILES is read from it. * marks the point of attachment. C20 diacid = O=C(O)CCCCCCCCCCCCCCCCCCC(=O)*; γGlu = O=C(O)[C@H](CCC(=O)[*:2])N[*:1]

Key:
[1] = target: T1, human amylin 3(a) receptor (human calcitonin receptor + RAMP-3) in BHK570 cells (Homo sapiens, UniProt O60896+P30988); experiment: ASSAY (II)a functional assay, human amylin receptor (CRE luciferase); type: cell-based
T1 construct: expressed in transfected cells
Procedure, shortened: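 Readout is luminescence from a cAMP-responsive CRE-luc reporter, developed with LucLite for 30 min at room temperature. Cells were treated for 3 h at 37 °C in 10% FBS/DMEM buffered with 10 mM Hepes (pH 7.4).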

[2] = target: T2, human amylin receptor (membranes from Amylin 3(a)/CRE-luc cells) (Homo sapiens, UniProt O60896+P30988); experiment: ASSAY (V) binding to the human amylin receptor (SPA, 125I-rat amylin);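 note: competition binding of cell membranes (35 ng/µL) mixed with SPA beads in 384-well plates at 40 µL total volume, read by scintillation counting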
T2 construct: expressed in transfected cells
T2 sequence (P30988 25-474): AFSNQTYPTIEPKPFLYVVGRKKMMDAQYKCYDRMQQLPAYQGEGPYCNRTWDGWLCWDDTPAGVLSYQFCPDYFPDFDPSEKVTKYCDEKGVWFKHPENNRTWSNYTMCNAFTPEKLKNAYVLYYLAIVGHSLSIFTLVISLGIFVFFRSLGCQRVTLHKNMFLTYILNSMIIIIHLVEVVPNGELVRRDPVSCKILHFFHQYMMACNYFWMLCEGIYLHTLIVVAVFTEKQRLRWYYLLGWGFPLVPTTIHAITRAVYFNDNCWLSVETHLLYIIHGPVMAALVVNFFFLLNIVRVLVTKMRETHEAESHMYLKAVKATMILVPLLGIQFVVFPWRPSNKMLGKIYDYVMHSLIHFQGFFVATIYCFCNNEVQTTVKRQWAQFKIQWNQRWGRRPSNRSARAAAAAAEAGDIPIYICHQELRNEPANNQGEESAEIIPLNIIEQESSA
T2 sequence (O60896 24-148 partner): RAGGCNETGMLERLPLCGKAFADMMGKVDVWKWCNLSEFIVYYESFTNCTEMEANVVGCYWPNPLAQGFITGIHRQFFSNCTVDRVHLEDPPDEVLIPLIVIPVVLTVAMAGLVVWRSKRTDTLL

[3] = hCTR funct. EC50 divided by hAmylin-R funct. EC50
[4] = hCTR funct. EC50 over hAmylin-R funct. EC50
[5] = human functional selectivity: hCTR funct. EC50 / hAmylin-R funct. EC50
[6] = Table 5, selectivity, hCTR bind IC50 / hAmylin-R bind IC50
[7] = Table 5a, selectivity, hCTR bind IC50 / hAmylin-R bind IC50
[8] = Table 5b, selectivity, hCTR bind IC50 / hAmylin-R bind IC50
[9] = Table 5c, selectivity, hCTR bind IC50 / hAmylin-R bind IC50
[10] = Table 7, human binding selectivity, included for comparison
[11] = Table 7a (preferred compounds), human binding selectivity, included for comparison
[12] = ratio of human calcitonin receptor binding IC50 to human amylin receptor binding IC50

Structure (SMILES) | Ratio hCT/hAmylin funct. [1, 3] | Ratio hCT/hAmylin funct. [1, 4] | Ratio hCT/hAmylin funct. [1, 5] | Ratio hCT/hAmylin binding [2, 6] | Ratio hCT/hAmylin binding [2, 7] | Ratio hCT/hAmylin binding [2, 8] | Ratio hCT/hAmylin binding [2, 9] | Ratio hCT/hAmylin binding [2, 10] | Ratio hCT/hAmylin binding [2, 11] | Ratio hCT/hAmylin binding [2, 12] | Ratio hCT/hAmylin funct. ([1]; hCTR funct. EC50 / hAmylin-R funct. EC50)
CC[C@H](C)[C@H](NC(=O)[C@H](C)NC(=O)CNC(=O)[C@H](Cc1ccccc1)NC(=O)[C@H](CC(N)=O)NC(=O)[C@@H]1CCCN1C(=O)[C@H](CO)NC(=O)[C@H](CO)NC(=O)[C@H](Cc1c[nH]cn1)NC(=O)[C@H](CCCNC(=N)N)NC(=O)[C@H](CC(C)C)NC(=O)[C@H](Cc1ccccc1)NC(=O)[C@H](CC(=O)O)NC(=O)[C@H](C)NC(=O)[C@H](CC(C)C)NC(=O)[C@H](CCCNC(=N)N)NC(=O)[C@H](CCC(N)=O)NC(=O)[C@@H](NC(=O)[C@H](C)NC(=O)[C@@H]1CSSC[C@H](NC(=O)[C@@H](N)CCCCNC(=O)CC[C@H](NC(=O)CC[C@H](NC(=O)CCCCCCCCCCCCCCCCCCC(=O)O)C(=O)O)C(=O)O)C(=O)N[C@@H](CC(N)=O)C(=O)N[C@@H]([C@@H](C)O)C(=O)N[C@@H](C)C(=O)N[C@@H]([C@@H](C)O)C(=O)N1)[C@@H](C)O)C(=O)N1CCC[C@H]1C(=O)N[C@@H](CO)C(=O)N[C@@H](CO)C(=O)N[C@H](C(=O)N[C@@H](CC(N)=O)C(=O)N[C@H](C(=O)NCC(=O)N1CCC[C@H]1C(=O)N[C@@H](CCC(=O)O)C(=O)N[C@H](C(=O)N[C@@H](Cc1ccc(O)cc1)C(N)=O)[C@@H](C)O)C(C)C)[C@@H](C)O [Example 122] (H-K([γGlu-γGlu-C20 diacid])CNTATCATQRLADFLRHSSPNFGAIPSSTNVGPETY-NH2; disulfide 2-7 (inferred); N-terminus assumed) | 5.3 | 5.3 | 5.3 | 49.8 | 49.8 | 49.8 | 49.8 | 49.8 | 49.8 | 49.8 | –
CC[C@H](C)[C@H](NC(=O)[C@H](C)NC(=O)CNC(=O)[C@H](Cc1ccccc1)NC(=O)[C@H](CC(N)=O)NC(=O)[C@@H]1CCCN1C(=O)[C@H](CO)NC(=O)[C@H](CO)NC(=O)[C@H](Cc1c[nH]cn1)NC(=O)[C@H](CCCNC(=N)N)NC(=O)[C@H](CC(C)C)NC(=O)[C@H](Cc1ccccc1)NC(=O)[C@H](CCC(=O)O)NC(=O)[C@H](C)NC(=O)[C@H](CC(C)C)NC(=O)[C@H](CCCNC(=N)N)NC(=O)[C@H](CCC(N)=O)NC(=O)[C@@H](NC(=O)[C@H](C)NC(=O)[C@@H]1CSSC[C@H](NC(=O)[C@@H](N)CCCCNC(=O)CC[C@H](NC(=O)CC[C@H](NC(=O)CCCCCCCCCCCCCCCCCCC(=O)O)C(=O)O)C(=O)O)C(=O)N[C@@H](CC(N)=O)C(=O)N[C@@H]([C@@H](C)O)C(=O)N[C@@H](C)C(=O)N[C@@H]([C@@H](C)O)C(=O)N1)[C@@H](C)O)C(=O)N1CCC[C@H]1C(=O)N[C@@H](CO)C(=O)N[C@@H](CO)C(=O)N[C@H](C(=O)N[C@@H](CC(N)=O)C(=O)N[C@H](C(=O)NCC(=O)N1CCC[C@H]1C(=O)N[C@@H](CCC(=O)O)C(=O)N[C@H](C(=O)N1CCC[C@H]1C(N)=O)[C@@H](C)O)C(C)C)[C@@H](C)O [Example 125] (H-K([γGlu-γGlu-C20 diacid])CNTATCATQRLAEFLRHSSPNFGAIPSSTNVGPETP-NH2; disulfide 2-7 (inferred); N-terminus assumed) | 0.8 | 0.8 | 0.8 | 0.4 | – | – | – | 0.4 | 0.4 | – | 0.8
CC[C@H](C)[C@H](NC(=O)[C@H](C)NC(=O)CNC(=O)[C@H](Cc1ccccc1)NC(=O)[C@H](CC(N)=O)NC(=O)[C@@H]1CCCN1C(=O)[C@H](CO)NC(=O)[C@H](CO)NC(=O)[C@H](Cc1c[nH]cn1)NC(=O)[C@H](CCCNC(=N)N)NC(=O)[C@H](CC(C)C)NC(=O)[C@H](Cc1ccccc1)NC(=O)[C@H](CCC(=O)O)NC(=O)[C@H](C)NC(=O)[C@H](CC(C)C)NC(=O)[C@H](CCCNC(=N)N)NC(=O)[C@H](CCC(N)=O)NC(=O)[C@@H](NC(=O)[C@H](C)NC(=O)[C@@H]1CSSC[C@H](NC(=O)[C@@H](N)CCCCNC(=O)CC[C@H](NC(=O)CC[C@H](NC(=O)CCCCCCCCCCCCCCCCCCC(=O)O)C(=O)O)C(=O)O)C(=O)N[C@@H](CC(N)=O)C(=O)N[C@@H]([C@@H](C)O)C(=O)N[C@@H](C)C(=O)N[C@@H]([C@@H](C)O)C(=O)N1)[C@@H](C)O)C(=O)N1CCC[C@H]1C(=O)N[C@@H](CO)C(=O)N[C@@H](CO)C(=O)N[C@H](C(=O)N[C@@H](CC(N)=O)C(=O)N[C@H](C(=O)NCC(=O)N1CCC[C@H]1C(=O)N[C@@H](CC(N)=O)C(=O)N[C@H](C(=O)N[C@@H](Cc1ccccc1)C(N)=O)[C@@H](C)O)C(C)C)[C@@H](C)O [Example 127] (H-K([γGlu-γGlu-C20 diacid])CNTATCATQRLAEFLRHSSPNFGAIPSSTNVGPNTF-NH2; disulfide 2-7 (inferred)) | 9.9 | 9.9 | 9.9 | 18.0 | 18.0 | 18.0 | – | 18.0 | 18.0 | 18.0 | –
CC[C@H](C)[C@H](NC(=O)[C@H](C)NC(=O)CNC(=O)[C@H](Cc1ccccc1)NC(=O)[C@H](CC(N)=O)NC(=O)[C@@H]1CCCN1C(=O)[C@H](CO)NC(=O)[C@H](CO)NC(=O)[C@H](Cc1c[nH]cn1)NC(=O)[C@H](CCCNC(=N)N)NC(=O)[C@H](CC(C)C)NC(=O)[C@H](Cc1ccccc1)NC(=O)[C@H](CCC(=O)O)NC(=O)[C@H](C)NC(=O)[C@H](CC(C)C)NC(=O)[C@H](CCCNC(=N)N)NC(=O)[C@H](CCC(N)=O)NC(=O)[C@@H](NC(=O)[C@H](C)NC(=O)[C@@H]1CSSC[C@H](NC(=O)[C@@H](N)CCCCNC(=O)CC[C@H](NC(=O)CCCCCCCCCCCCCCCCCCC(=O)O)C(=O)O)C(=O)N[C@@H](CC(N)=O)C(=O)N[C@@H]([C@@H](C)O)C(=O)N[C@@H](C)C(=O)N[C@@H]([C@@H](C)O)C(=O)N1)[C@@H](C)O)C(=O)N1CCC[C@H]1C(=O)N[C@@H](CO)C(=O)N[C@@H](CO)C(=O)N[C@H](C(=O)N[C@@H](CC(N)=O)C(=O)N[C@H](C(=O)NCC(=O)N[C@@H](CO)C(=O)N[C@@H](Cc1c[nH]cn1)C(=O)N[C@H](C(=O)N[C@@H](Cc1ccc(O)cc1)C(N)=O)[C@@H](C)O)C(C)C)[C@@H](C)O [Example 128] (H-K([γGlu-C20 diacid])CNTATCATQRLAEFLRHSSPNFGAIPSSTNVGSHTY-NH2; disulfide 2-7 (inferred); N-terminus assumed) | 13.1 | 13.1 | 13.1 | 26.4 | 26.4 | 26.4 | 26.4 | 26.4 | 26.4 | 26.4 | –
CC[C@H](C)[C@H](NC(=O)[C@H](C)NC(=O)CNC(=O)[C@H](Cc1ccccc1)NC(=O)[C@H](CC(N)=O)NC(=O)[C@@H]1CCCN1C(=O)[C@H](CO)NC(=O)[C@H](CO)NC(=O)[C@H](Cc1c[nH]cn1)NC(=O)[C@H](CCCNC(=N)N)NC(=O)[C@H](CC(C)C)NC(=O)[C@H](Cc1ccccc1)NC(=O)[C@H](CC(=O)O)NC(=O)[C@H](C)NC(=O)[C@H](CC(C)C)NC(=O)[C@H](CCCNC(=N)N)NC(=O)[C@H](CCC(N)=O)NC(=O)[C@@H](NC(=O)[C@H](C)NC(=O)[C@@H]1CSSC[C@H](NC(=O)[C@@H](N)CCCCNC(=O)CC[C@H](NC(=O)CC[C@H](NC(=O)CCCCCCCCCCCCCCCCCCC(=O)O)C(=O)O)C(=O)O)C(=O)N[C@@H](CC(N)=O)C(=O)N[C@@H]([C@@H](C)O)C(=O)N[C@@H](C)C(=O)N[C@@H]([C@@H](C)O)C(=O)N1)[C@@H](C)O)C(=O)N1CCC[C@H]1C(=O)N[C@@H](CO)C(=O)N[C@@H](CO)C(=O)N[C@H](C(=O)N[C@@H](CC(N)=O)C(=O)N[C@H](C(=O)NCC(=O)N1CCC[C@H]1C(=O)N[C@@H](CCCNC(=N)N)C(=O)N[C@H](C(=O)N[C@@H](Cc1ccc(O)cc1)C(N)=O)[C@@H](C)O)C(C)C)[C@@H](C)O [Example 130] (H-K([γGlu-γGlu-C20 diacid])CNTATCATQRLADFLRHSSPNFGAIPSSTNVGPRTY-NH2; disulfide 2-7 (inferred); N-terminus assumed) | 44.9 | 44.9 | 44.9 | 280.0 | 280.0 | 280.0 | 280.0 | 280.0 | 280.0 | 280.0 | –
